Entries after “also recorded” stand apart in the source; their conditions may differ.
Tested on: seizures associated with congenital disorder of glycosylation 1P (tonic and myoclonic seizures)
Assay: Open label, expanded-access program of botanically derived purified CBD: seizure frequency in a patient with congenital disorder of glycosylation 1P
Assay type: in vivo, human
Conditions: for Seizure frequency, Tonic: baseline 448.0; for Seizure frequency, Myoclonic: baseline 700.0
Description: The subject was required to be on one or more AEDs at stable doses for a minimum of two weeks prior to baseline and to have stable vagus nerve stimulation (VNS) settings and ketogenic diet ratios for a minimum of four weeks prior to baseline.
Dose was then increased weekly by 5 mg/kg/day to a goal of 25 mg/kg/day.
A maximum dose of 50 mg/kg/day could be utilised for the patient if they were tolerating the medication but had not achieved seizure control; the patient had further weekly titration by 5 mg/kg/day.
Modifications were made to concomitant AEDs as per clinical indication.
Seizure frequency, intensity, and duration were recorded by caregivers in a diary during a baseline period of at least 28 days. Changes in seizure frequency relative to baseline were calculated after at least 2 weeks and at defined timepoints of treatment.
Patients may be defined as responders if they had more than 50% reduction in seizure frequency compared to baseline. The percent change in seizure frequency was calculated as follows: […]
The percent change of seizure frequency may be calculated for any time interval where seizure number has been recorded. For the purpose of this example the percent change of seizure frequency for the end of the treatment period was calculated as follows: […]

[1] = Patient 1, 2 weeks, dose CBD 9.1 mg/kg/day
[2] = Patient 1, 4 weeks, dose CBD 18.2 mg/kg/day
[3] = Patient 1, 8 weeks, dose CBD 26.3 mg/kg/day
[4] = Patient 1, 12 weeks, dose CBD 19.0 mg/kg/day
[5] = Patient 1, 16 weeks, dose CBD 13.3 mg/kg/day
[6] = Patient 1, treated for 132 weeks, relative to baseline

C=C(C)[C@@H]1CCC(C)=C[C@H]1c1c(O)cc(CCCCC)cc1O [CBD, cannabidiol]
Seizure frequency, Tonic [1]: 328.0 | Seizure frequency, Myoclonic [1]: 384.0 | Seizure frequency, Tonic [2]: 231.2 | Seizure frequency, Myoclonic [2]: 424.8 | Seizure frequency, Tonic [3]: 52.0 | Seizure frequency, Myoclonic [3]: 608.0 | Seizure frequency, Tonic [4]: 22.8 | Seizure frequency, Myoclonic [4]: 986.0 | Seizure frequency, Tonic [5]: 20.0 | Seizure frequency, Myoclonic [5]: 1251.2 | reduction in myoclonic seizures over the treatment period [6]: 72.1% | reduction in tonic seizures over the treatment period [6]: 57.2% | effect on frequency/number of tonic and myoclonic seizures (in words) (patient with congenital disorder of glycosylation 1P): effective in reducing the frequency of tonic and myoclonic seizures; also recorded: significantly reduce the number of seizures; also recorded: significant reduction in tonic and myoclonic seizures
